According to the NIST ThermoML archive (doi:10.1016/j.jct.2016.08.001):

Assays:
[1] = xn = mol fraction of the nth substance listed; settings: 100 kPa, Liquid; for speed of sound: Frequency=3 MHz, Sing-around technique in a fixed-path interferometer; for mass density: Vibrating tube method
[2] = refractive index (Na D-line) (dimensionless); xn = mol fraction of the nth substance listed; settings: 100 kPa, Liquid, Standard Abbe refractometry

Nc1ccccc1 [aniline] + CCOC(=O)OCC
Settings	mass density, [1] [kg/m3]	refractive index, [2]	speed of sound, [1] [m/s]
298.15 K, x2 = 0	1017.1	1.5826	1636.8
298.15 K, x2 = 0.073	1014.2	1.5649	1594.4
298.15 K, x2 = 0.1652	1010.2	1.5435	1543.3
298.15 K, x2 = 0.2537	1006.4	1.5237	1497.7
298.15 K, x2 = 0.3387	1002.6	1.5053	1455.9
298.15 K, x2 = 0.4432	998	1.4835	1407.9
298.15 K, x2 = 0.5468	993	1.4626	1361.3
298.15 K, x2 = 0.6546	987.7	1.4419	1316
298.15 K, x2 = 0.7559	982.5	1.4235	1274.2
298.15 K, x2 = 0.884	975.9	1.4016	1222.6
303.15 K, x2 = 0	1012.7	1.5793	1617.5
303.15 K, x2 = 0.073	1009.8	1.562	1575.1
303.15 K, x2 = 0.1652	1005.7	1.5408	1523.9
303.15 K, x2 = 0.2537	1001.8	1.5212	1478.3
303.15 K, x2 = 0.3387	997.9	1.5029	1436.4
303.15 K, x2 = 0.4432	993.2	1.4813	1388.2
303.15 K, x2 = 0.5468	988.1	1.4606	1341.5
303.15 K, x2 = 0.6546	982.6	1.4401	1296
303.15 K, x2 = 0.7559	977.3	1.4216	1254.1
303.15 K, x2 = 0.884	970.5	1.3995	1202.3
308.15 K, x2 = 0	1008.4	1.576	1598.3
308.15 K, x2 = 0.073	1005.4	1.559	1555.8
308.15 K, x2 = 0.1652	1001.2	1.538	1504.6
308.15 K, x2 = 0.2537	997.1	1.5187	1458.5
308.15 K, x2 = 0.3387	993.2	1.5006	1416.8
308.15 K, x2 = 0.4432	988.3	1.4791	1368.5
308.15 K, x2 = 0.5468	983.1	1.4586	1321.7
308.15 K, x2 = 0.6546	977.5	1.4381	1276
308.15 K, x2 = 0.7559	972	1.4196	1234.1
308.15 K, x2 = 0.884	965.1	1.3974	1182.1
313.15 K, x2 = 0	1004.1	1.5727	1579.1
313.15 K, x2 = 0.073	1001	1.556	1536.6
313.15 K, x2 = 0.1652	996.6	1.5354	1485.3
313.15 K, x2 = 0.2537	992.5	1.5162	1439.1
313.15 K, x2 = 0.3387	988.5	1.4983	1397.4
313.15 K, x2 = 0.4432	983.5	1.477	1349
313.15 K, x2 = 0.5468	978.1	1.4566	1302
313.15 K, x2 = 0.6546	972.4	1.4362	1256.3
313.15 K, x2 = 0.7559	966.8	1.4176	1214.2
313.15 K, x2 = 0.884	959.8	1.3954	1162.1
318.15 K, x2 = 0	999.7	1.5694	1560
318.15 K, x2 = 0.073	996.5	1.5531	1517.6
318.15 K, x2 = 0.1652	992.1	1.5327	1466
318.15 K, x2 = 0.2537	987.9	1.5137	1419.8
318.15 K, x2 = 0.3387	983.7	1.496	1378
318.15 K, x2 = 0.4432	978.6	1.4749	1329.5
318.15 K, x2 = 0.5468	973.1	1.4545	1282.5
318.15 K, x2 = 0.6546	967.2	1.4343	1236.6
318.15 K, x2 = 0.7559	961.4	1.4156	1194.5
318.15 K, x2 = 0.884	954.3	1.3933	1142.2
323.15 K, x2 = 0	995.4	1.5661	1540.9
323.15 K, x2 = 0.073	992.1	1.5501	1498.2
323.15 K, x2 = 0.1652	987.6	1.5302	1446.8
323.15 K, x2 = 0.2537	983.2	1.5113	1400.5
323.15 K, x2 = 0.3387	979	1.4937	1358.7
323.15 K, x2 = 0.4432	973.7	1.4728	1310.1
323.15 K, x2 = 0.5468	968.1	1.4525	1263
323.15 K, x2 = 0.6546	962	1.4323	1217.1
323.15 K, x2 = 0.7559	956.1	1.4138	1174.9
323.15 K, x2 = 0.884	948.8	1.3913	1122.5

O=Cc1ccccc1 [benzaldehyde] + CCOC(=O)OCC
Settings	mass density, [1] [kg/m3]	refractive index, [2]	speed of sound, [1] [m/s]
298.15 K, x2 = 0	1041	1.541	1457.3
298.15 K, x2 = 0.0933	1035	1.5244	1430.7
298.15 K, x2 = 0.1658	1030.2	1.5118	1409
298.15 K, x2 = 0.267	1023.4	1.4947	1379.1
298.15 K, x2 = 0.36	1016.9	1.4794	1352.5
298.15 K, x2 = 0.4554	1010.4	1.4638	1325.4
298.15 K, x2 = 0.5605	1003	1.4472	1296.3
298.15 K, x2 = 0.6547	996.2	1.4325	1269.8
298.15 K, x2 = 0.7716	987.4	1.415	1238.2
298.15 K, x2 = 0.8473	981.4	1.4039	1217
303.15 K, x2 = 0	1036.5	1.5383	1438.9
303.15 K, x2 = 0.0933	1030.6	1.522	1412.1
303.15 K, x2 = 0.1658	1025.7	1.5094	1389.9
303.15 K, x2 = 0.267	1018.7	1.4924	1359.9
303.15 K, x2 = 0.36	1012.2	1.4771	1333.1
303.15 K, x2 = 0.4554	1005.4	1.4616	1305.8
303.15 K, x2 = 0.5605	997.9	1.445	1276.5
303.15 K, x2 = 0.6547	991	1.4304	1249.9
303.15 K, x2 = 0.7716	982.1	1.4129	1218.1
303.15 K, x2 = 0.8473	976	1.4017	1196.8
308.15 K, x2 = 0	1032	1.5357	1420.6
308.15 K, x2 = 0.0933	1026.2	1.5195	1393.5
308.15 K, x2 = 0.1658	1021.2	1.5071	1371.1
308.15 K, x2 = 0.267	1014.1	1.4902	1340.8
308.15 K, x2 = 0.36	1007.4	1.475	1313.8
308.15 K, x2 = 0.4554	1000.6	1.4596	1286.3
308.15 K, x2 = 0.5605	992.9	1.443	1256.9
308.15 K, x2 = 0.6547	985.8	1.4283	1230.1
308.15 K, x2 = 0.7716	976.8	1.4108	1198.1
308.15 K, x2 = 0.8473	970.7	1.3995	1176.7
313.15 K, x2 = 0	1027.5	1.5332	1402.4
313.15 K, x2 = 0.0933	1021.8	1.5171	1375
313.15 K, x2 = 0.1658	1016.7	1.5048	1352.4
313.15 K, x2 = 0.267	1009.5	1.488	1321.8
313.15 K, x2 = 0.36	1002.7	1.4728	1294.6
313.15 K, x2 = 0.4554	995.6	1.4574	1267
313.15 K, x2 = 0.5605	987.9	1.4409	1237.4
313.15 K, x2 = 0.6547	980.7	1.4262	1210.4
313.15 K, x2 = 0.7716	971.6	1.4087	1178.3
313.15 K, x2 = 0.8473	965.4	1.3973	1156.8
318.15 K, x2 = 0	1023	1.5307	1384.4
318.15 K, x2 = 0.0933	1017.3	1.515	1356.6
318.15 K, x2 = 0.1658	1012.2	1.5028	1333.8
318.15 K, x2 = 0.267	1004.9	1.486	1303.3
318.15 K, x2 = 0.36	997.9	1.4708	1275.8
318.15 K, x2 = 0.4554	990.7	1.4555	1248
318.15 K, x2 = 0.5605	982.8	1.439	1218.3
318.15 K, x2 = 0.6547	975.6	1.4242	1191.5
318.15 K, x2 = 0.7716	966.4	1.4067	1159
318.15 K, x2 = 0.8473	960.1	1.3952	1137.3
323.15 K, x2 = 0	1018.4	1.5282	1366.4
323.15 K, x2 = 0.0933	1012.8	1.5124	1339.3
323.15 K, x2 = 0.1658	1007.7	1.5003	1316.3
323.15 K, x2 = 0.267	1000.2	1.4836	1285.3
323.15 K, x2 = 0.36	993.1	1.4685	1257.7
323.15 K, x2 = 0.4554	985.8	1.4532	1229.8
323.15 K, x2 = 0.5605	977.7	1.4368	1199.9
323.15 K, x2 = 0.6547	970.4	1.4221	1173.1
323.15 K, x2 = 0.7716	961.1	1.4046	1140.6
323.15 K, x2 = 0.8473	954.8	1.3931	1118.8
